What was measured:
Format in all cases: cell-based
Jurkat FADD−/− cells [1] = experiment: Jurkat FADD−/− cytotox assay; conditions: Homo sapiens, without huTNFα, Cell Titer Glo viability, read-out: Jurkat TOX IC50
Protocol: (§1) For the Jurkat FADD^−/− Necroptosis assay, compounds were serially diluted in 100% dimethyl sulfoxide (DMSO) (Sigma-Aldrich catalog no. 41641), and 250 nL was transferred to a sterile 384-well microtiter plate (PerkinElmer catalog no. 6007688) via Echo liquid handler (LABCYTE). Five thousand Jurkat FADD ^−/− cells (ATCC catalog no. CRL-2572) in 20 µL of modified Roswell Park Memorial Institute medium (Gibco catalog no. 10491), 10% fetal calf serum (Gibco catalog no. 100500), 1x Anti/Anti (Gibco catalog no. 15240-062), 1x L-Glutamax (Gibco catalog no. 35050-087), and 1% PenStrep (SIGMA catalog no. P4333) were seeded into each well of the prepared assay plate with compound. Cells and compounds were incubated for 30 min at 37 °C (humidified incubator with 5% CO2). After incubation, 5 µL of recombinant human TNFα (huTNFα) (Biotrend catalog no. cyt-223; 10 ng/mL final concentration [f.c.]) was added to the cells, followed by an incubation of 24 h at 37 °C. Following the incubation, the experimental plates were equilibrated to room temperature (30 min) before 25 µL of Cell Titer Glo Luminescent Cell Viability Assay System reagent (Promega catalog no. G7571) was added to the plate wells, incubated at room temperature for ∼10 min. After incubation, the samples were analyzed for luminescence by using an Envision reader (PerkinElmer).
MLKL antagonists were tested in cytotox assays by using Jurkat FADD^−/− and U937 cells according to the assay procedures described for the necroptosis assays, but without treatment with recombinant huTNFα and/or zVAD-fmk. High controls (100% CTL, no effect) were defined as cells treated with DMSO, and low controls (0% CTL) were defined as medium without cells (0% CTL, maximal effect).
(§2) All cellular assays were done for Cpd 1, Cpd 2, Cpd 3, Cpd 4, and Cpd 5 in duplicate and in quadruplet for NSA.

U937 cells [2] = experiment: U937 necroptosis assay; conditions: Homo sapiens, U-937, huTNFα plus 10 µM zVAD-fmk, read-out: U937 NEC IC50
Protocol: as §1
(§3) Each assay plate contained wells with “high” and “low” controls. High controls (100% CTL) were defined as cells treated with DMSO, and low controls (0% CTL) were defined as cells treated with 10 ng/mL recombinant huTNFα. IC50 values were calculated based on the percentage of control values using a four-parameter-fitting model.
(§4) MLKL antagonists were also evaluated in a necroptosis assay with U937 cells ([26]) (ATCC catalog no. CRL-1593.2). The assay procedure with U937 cells was as described for the Jurakt FADD^−/− necroptosis assay with the following modifications: 8,000 cells were seeded per well, and, in addition to the recombinant huTNFα, cells were also incubated in the presence of 10 µM (f.c.) carbobenzoxy-valyl-alanyl-aspartyl-[O-methyl]-fluoromethylketone (zVAD-fmk) (Enzo Life Sciences catalog no. ALX-260-020). Low controls (0% CTL) were defined as cells treated with 100 ng/mL recombinant huTNFα plus 10 µM zVAD-fmk.
as §2

Jurkat FADD−/− cells [3] = experiment: Jurkat FADD−/− necroptosis assay; conditions: Homo sapiens, 10 ng/mL huTNFα, 24 h, Cell Titer Glo viability, read-out: Jurkat NEC IC50
Protocol: as §1, §3, §2

U937 cells [4] = experiment: U937 apoptosis assay; conditions: Homo sapiens, U-937, 100 ng/mL huTNFα plus 3 µM NSA, read-out: U937 APOP IC50
Protocol: as §4
Furthermore, MLKL antagonists were tested in a U937 apoptosis assay in the presence of 3 µM (f.c.) NSA (Tocris catalog no. 5025) and 100 ng/mL (f.c.) recombinant huTNFα in the same way as described for the U937 necroptosis assay. Low controls (0% CTL) were defined as cells treated with 100 ng/mL recombinant huTNFα plus 3 µM NSA.
as §2

- IC50 (U937 cells [4]): > 100000 nM
SMILES: Cn1c(=O)c2c(nc(S(C)(=O)=O)n2C)n(CC#Cc2cccc(O)c2)c1=O [Cpd 3]
- IC50 (Jurkat FADD−/− cells [1]): 13600 nM
- IC50 (U937 cells [2]): 271 nM
- IC50 (Jurkat FADD−/− cells [3]): 541 nM
